Biological target: T1, Recombinant human BRD4 containing dual bromodomains (BRD4-BD12 (1-477)) (Homo sapiens, UniProt O60885)
T1 construct: Recombinant human BRD4 containing dual bromodomains (BRD4-BD12 (1-477)); made in house; host or cells: E. coli BL21-CodonPlus (DE3), modified pET vector
Assay: BRD4 Alphascreen binding assay
Summary of the method: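 AlphaScreen proximity between Ni-chelate-bound BRD4-BD12 (1-477) and streptavidin-captured H4 K5/K8/K12/K16-acetyl peptide measured after 1 h room-temperature compound incubation and 30 min with 7.5 μg/ml beads. Buffer: 50 mM HEPES pH 7.5, 50 mM NaCl, 0.01% BSA, 0.01% Triton X-100; data plate-normalized and four-parameter fit for IC50.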

| SMILES | IC50 |
| --- | --- |
| Cc1noc(C)c1-c1cnc2c(c1)c(-c1ccc(C(=O)O)cc1)cn2[C@@H](C)c1ccccn1 [P-0001, (S)-4-(5-(3,5-dimethylisoxazol-4-yl)-1-(1-(pyridin-2-yl)ethyl)-1H-pyrrolo[2,3-b]pyridin-3-yl)benzoic acid] | 8 to 1000 µM |
| Cc1noc(C)c1-c1cnc2c(c1)c(-c1ccc(C(=O)O)cc1)cn2C(c1ccccn1)C1CCCC1 (stereo not shown) [P-0002, 4-(1-(cyclopentyl(pyridin-2-yl)methyl)-5-(3,5-dimethylisoxazol-4-yl)-1H-pyrrolo[2,3-b]pyridin-3-yl)benzoic acid] | 0.0001 to 1 µM |
| Cc1noc(C)c1-c1cnc2c(c1)c(-c1ccccc1)cn2C(c1ccccn1)C1CCCC1 (stereo not shown) [P-0003, 4-(1-(cyclopentyl(pyridin-2-yl)methyl)-3-phenyl-1H-pyrrolo[2,3-b]pyridin-5-yl)-3,5-dimethylisoxazole] | 8 to 1000 µM |
| Cc1noc(C)c1-c1cnc2c(c1)c(-c1ccc(C(=O)O)cc1)cn2C(c1ccccn1)C1CCCCC1 (stereo not shown) [P-0004, 4-(1-(cyclohexyl(pyridin-2-yl)methyl)-5-(3,5-dimethylisoxazol-4-yl)-1H-pyrrolo[2,3-b]pyridin-3-yl)benzoic acid] | 8 to 1000 µM |
| COC(=O)c1ccc(-c2cn(S(=O)(=O)c3ccc(C)cc3)c3ncc(-c4c(C)noc4C)cc23)cc1 [P-0005, methyl 4-(5-(3,5-dimethylisoxazol-4-yl)-1-tosyl-1H-pyrrolo[2,3-b]pyridin-3-yl)benzoate] | 8 to 1000 µM |
| Cc1noc(C)c1-c1cnc2c(c1)c(-c1ccnc(C(=O)O)c1)cn2S(=O)(=O)c1ccccc1 [P-0055, 4-(5-(3,5-dimethylisoxazol-4-yl)-1-(phenylsulfonyl)-1H-pyrrolo[2,3-b]pyridin-3-yl)picolinic acid] | 0.0001 to 1 µM |
| COc1cccc(Cn2cc(-c3cccc(C(=O)O)c3)c3cc(-c4c(C)noc4C)cnc32)c1 [P-0056, 3-(5-(3,5-dimethylisoxazol-4-yl)-1-(3-methoxybenzyl)-1H-pyrrolo[2,3-]pyridin-3-yl)benzoic acid] | 1 to 8 µM |
| COc1cccc(Cn2cc(-c3ccnc(C(=O)O)c3)c3cc(-c4c(C)noc4C)cnc32)c1 [P-0057, 4-(5-(3,5-dimethylisoxazol-4-yl)-1-(3-methoxybenzyl)-1H-pyrrolo[2,3-b]pyridin-3-yl)picolinic acid] | 1 to 8 µM |
| Cc1noc(C)c1-c1cnc2c(c1)c(-c1cccc(C(=O)O)c1)cn2C(C1CC1)C1CC1 [P-0058, 3-(1-(dicyclopropylmethyl)-5-(3,5-dimethylisoxazol-4-yl)-1H-pyrrolo[2,3-b]pyridin-3-yl)benzoic acid] | 8 to 1000 µM |
| Cc1noc(C)c1-c1cnc2c(c1)c(-c1cccc(C(=O)O)c1)cn2Cc1cccc(OC(F)(F)F)c1 [P-0059, 3-(5-(3,5-dimethylisoxazol-4-yl)-1-(3-(trifluoromethoxy)benzyl)-1H-pyrrolo[2,3-b]pyridin-3-yl)benzoic acid] | 8 to 1000 µM |
| Cc1noc(C)c1-c1cnc2c(c1)c(-c1cccc(C(=O)O)c1)cn2Cc1cccc(F)c1 [P-0060, 3-(5-(3,5-dimethylisoxazol-4-yl)-1-(3-fluorobenzyl)-1H-pyrrolo[2,3-b]pyridin-3-yl)benzoic acid] | 1 to 8 µM |
| Cc1noc(C)c1-c1cnc2c(c1)c(-c1cccc(C(=O)O)c1)cn2Cc1cccc(Cl)c1 [P-0061, 3-(1-(3-chlorobenzyl)-5-(3,5-dimethylisoxazol-4-yl)-1H-pyrrolo[2,3-b]pyridin-3-yl)benzoic acid] | 8 to 1000 µM |
| Cc1cccc(Cn2cc(-c3cccc(C(=O)O)c3)c3cc(-c4c(C)noc4C)cnc32)c1 [P-0062, 3-(5-(3,5-dimethylisoxazol-4-yl)-1-(3-methylbenzyl)-1H-pyrrolo[2,3-b]pyridin-3-yl)benzoic acid] | 8 to 1000 µM |
| Cc1noc(C)c1-c1cnc2c(c1)c(-c1cccc(C(=O)O)c1)cn2Cc1cccc(C(F)(F)F)c1 [P-0063, 3-(5-(3,5-dimethylisoxazol-4-yl)-1-(3-(trifluoromethyl)benzyl)-1H-pyrrolo[2,3-b]pyridin-3-yl)benzoic acid] | 8 to 1000 µM |
| Cc1noc(C)c1-c1cnc2c(CC3CCC3)cn(-c3ccc(C(=O)O)cc3OC(F)F)c2c1 [P-0064, 4-(3-(cyclobutylmethyl)-6-(3,5-dimethylisoxazol-4-yl)-1H-pyrrolo[3,2-b]pyridin-1-yl)-3-(difluoromethoxy)benzoic acid] | 1 to 8 µM |
| Cc1noc(C)c1-c1cnc2c(CC3CC3)cn(-c3ccnc(C(=O)O)c3)c2c1 [P-0065, 4-(3-(cyclopropylmethyl)-6-(3,5-dimethylisoxazol-4-yl)-1H-pyrrolo[3,2-b]pyridin-1-yl)picolinic acid] | 1 to 8 µM |
| Cc1noc(C)c1-c1cnc2c(CC3CCC3)cn(-c3ccc(C(=O)O)cc3OC(F)(F)F)c2c1 [P-0066, 4-(3-(cyclobutylmethyl)-6-(3,5-dimethylisoxazol-4-yl)-1H-pyrrolo[3,2-b]pyridin-1-yl)-3-(trifluoromethoxy)benzoic acid] | 8 to 1000 µM |

| SMILES | IC50 |
| --- | --- |
| COc1cc(C(=O)O)cc(OC)c1-n1cc(CC2CCC2)c2ncc(-c3c(C)noc3C)cc21 [P-0067, 4-(3-(cyclobutylmethyl)-6-(3,5-dimethylisoxazol-4-yl)-1H-pyrrolo[3,2-b]pyridin-1-yl)-3,5-dimethoxybenzoic acid] | 1 to 8 µM |
| Cc1noc(C)c1-c1cnc2c(CC3CCC3)cn(-c3ccc(S(C)(=O)=O)c(F)c3)c2c1 [P-0068, 4-(3-(cyclobutylmethyl)-1-(3-fluoro-4-(methylsulfonyl)phenyl)-1H-pyrrolo[3,2-b]pyridin-6-yl)-3,5-dimethylisoxazole] | 8 to 1000 µM |
| Cc1noc(C)c1-c1cnc2c(c1)c(C#CC(=O)O)cn2Cc1ccccc1 [P-0069, 3-(1-benzyl-5-(3,5-dimethylisoxazol-4-yl)-1H-pyrrolo[2,3-b]pyridin-3-yl)propiolic acid] | 8 to 1000 µM |
| Cc1noc(C)c1-c1cnc2c(c1)c(-c1ccc(C(=O)O)cc1OC(F)(F)F)cn2[C@@H](C)c1ccccn1 [P-0070, (S)-4-(5-(3,5-dimethylisoxazol-4-yl)-1-(1-(pyridin-2-yl)ethyl)-1H-pyrrolo[2,3-b]pyridin-3-yl)-3-(trifluoromethoxy)benzoic acid] | 8 to 1000 µM |
| Cc1noc(C)c1-c1cnc2c(c1)c(-c1ccc(C(=O)O)cc1OC(F)F)cn2[C@@H](C)c1ccccn1 [P-0071, (S)-3-(difluoromethoxy)-4-(5-(3,5-dimethylisoxazol-4-yl)-1-(1-(pyridin-2-yl)ethyl)-1H-pyrrolo[2,3-b]pyridin-3-yl)benzoic acid] | 1 to 8 µM |
| Cc1noc(C)c1-c1cnc2c(c1)c(-c1cccc(C(=O)O)c1)cn2C(C1CCC1)C1CCC1 [P-0072, 3-(1-(dicyclobutylmethyl)-5-(3,5-dimethylisoxazol-4-yl)-1H-pyrrolo[2,3-b]pyridin-3-yl)benzoic acid] | 1 to 8 µM |
| Cc1noc(C)c1-c1cnc2c(c1)c(-c1cccc(C(=O)O)c1)cn2C(c1ccccn1)C1CCC1 (stereo not shown) [P-0073, 3-(1-(cyclobutyl(pyridin-2-yl)methyl)-5-(3,5-dimethylisoxazol-4-yl)-1H-pyrrolo[2,3-b]pyridin-3-yl)benzoic acid] | 8 to 1000 µM |
| Cc1noc(C)c1-c1cnc2c(CC3CCC3)cn(-c3c(Cl)cc(C(=O)O)cc3Cl)c2c1 [P-0074, 3,5-dichloro-4-(3-(cyclobutylmethyl)-6-(3,5-dimethylisoxazol-4-yl)-1H-pyrrolo[3,2-b]pyridin-1-yl)benzoic acid] | 8 to 1000 µM |
| Cc1cc(C(=O)O)cnc1-n1cc(CC2CCC2)c2ncc(-c3c(C)noc3C)cc21 [P-0075, 6-(3-(cyclobutylmethyl)-6-(3,5-dimethylisoxazol-4-yl)-1H-pyrrolo[3,2-b]pyridin-1-yl)-5-methylnicotinic acid] | 8 to 1000 µM |
| Cc1noc(C)c1-c1cnc2c(CC3CCC3)cn(-c3ccc(C#N)cc3)c2c1 [P-0076, 4-(3-(cyclobutylmethyl)-6-(3,5-dimethylisoxazol-4-yl)-1H-pyrrolo[3,2-b]pyridin-1-yl)benzonitrile] | 8 to 1000 µM |
| Cc1noc(C)c1-c1cnc2c(CC3CCC3)cn(-c3ccnc(C#N)c3)c2c1 [P-0077, 4-(3-(cyclobutylmethyl)-6-(3,5-dimethylisoxazol-4-yl)-1H-pyrrolo[3,2-b]pyridin-1-yl)picolinonitrile] | 1 to 8 µM |
| Cc1noc(C)c1-c1cnc2c(c1)c(-c1cccc(C(=O)NC#N)c1)cn2Cc1ccccc1 [P-0078, 3-(1-benzyl-5-(3,5-dimethylisoxazol-4-yl)-1H-pyrrolo[2,3-b]pyridin-3-yl)-N-cyanobenzamide] | 1 to 8 µM |
| Cc1noc(C)c1-c1cnc2c(c1)c(-c1cccc(C(=O)NO)c1)cn2Cc1ccccc1 [P-0079, 3-(1-benzyl-5-(3,5-dimethylisoxazol-4-yl)-1H-pyrrolo[2,3-b]pyridin-3-yl)-N-hydroxybenzamide] | 1 to 8 µM |
| Cc1noc(C)c1-c1cnc2c(c1)c(-c1ccc(C(=O)O)cc1)cn2C(C)c1ccccn1 (stereo not shown) [P-0080, 4-(5-(3,5-dimethylisoxazol-4-yl)-1-(1-(pyridin-2-yl)ethyl)-1H-pyrrolo[2,3-b]pyridin-3-yl)benzoic acid] | 1 to 8 µM |
| Cc1noc(C)c1-c1cnc2c(c1)c(-c1cccc(S(N)(=O)=O)c1)cn2Cc1ccccc1 [P-0081, 3-(1-benzyl-5-(3,5-dimethylisoxazol-4-yl)-1H-pyrrolo[2,3-b]pyridin-3-yl)benzenesulfonamide] | 1 to 8 µM |
| CNS(=O)(=O)c1cccc(-c2cn(Cc3ccccc3)c3ncc(-c4c(C)noc4C)cc23)c1 [P-0082, 3-(1-benzyl-5-(3,5-dimethylisoxazol-4-yl)-1H-pyrrolo[2,3-b]pyridin-3-yl)-N-methylbenzenesulfonamide] | 1 to 8 µM |
| Cc1noc(C)c1-c1cnc2c(c1)c(-c1cccc(S(=O)(=O)NC3CC3)c1)cn2Cc1ccccc1 [P-0083, 3-(1-benzyl-5-(3,5-dimethylisoxazol-4-yl)-1H-pyrrolo[2,3-b]pyridin-3-yl)-N-cyclopropylbenzenesulfonamide] | 1 to 8 µM |

— US11446287B2, “Compounds and methods for EP300 or CBP modulation and indications therefor” (Opna Immuno-Oncology SA, priority 2019, dated 2022)
